The values below are quoted from earlier work in patent US20210228408A1, “Glaucoma Treatment Via Intracameral Ocular Implants” (Allergan, Inc., priority 2015, published 2021).

The target in data set [1] is prostaglandin F (FP) receptor (Homo sapiens, UniProt P43088). As to conditions: read-out: Most potent measured EC50 on FP receptor.
Data set [2] has as its target Cloned Human Ciliary Body FP Prostaglandin Receptor (Homo sapiens, UniProt P43088). As to conditions: read-out: Functional Potency, EC50.

Sequence of prostaglandin F (FP) receptor (P43088 whole entry): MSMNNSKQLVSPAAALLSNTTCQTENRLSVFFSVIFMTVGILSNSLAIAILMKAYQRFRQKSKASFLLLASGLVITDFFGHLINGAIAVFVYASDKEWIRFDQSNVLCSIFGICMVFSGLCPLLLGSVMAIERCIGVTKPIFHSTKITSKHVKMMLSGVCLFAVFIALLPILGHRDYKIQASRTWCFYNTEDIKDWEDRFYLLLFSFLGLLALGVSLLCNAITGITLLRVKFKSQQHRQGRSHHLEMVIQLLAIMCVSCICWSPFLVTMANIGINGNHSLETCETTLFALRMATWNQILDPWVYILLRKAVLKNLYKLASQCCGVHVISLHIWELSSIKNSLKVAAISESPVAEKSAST
Sequence of Cloned Human Ciliary Body FP Prostaglandin Receptor (P43088 whole entry): as above

Regarding `CC(C)OC(=O)CCC/C=C\C[C@@H]1[C@@H](/C=C/[C@@H](O)COc2cccc(C(F)(F)F)c2)[C@H](O)C[C@@H]1O` [Travoprost, propan-2-yl 7-[3,5-dihydroxy-2-[3-hydroxy-4-[3-(trifluoromethyl)phenoxy]-but-1-enyl]-cyclopentyl]hept-5-enoate], the EC50 in data set [1] is ~1.4 nM. Regarding `O=C(O)CCC/C=C\C[C@@H]1[C@@H](/C=C/[C@@H](O)CCc2ccccc2)[C@H](O)C[C@@H]1O` [Bimatoprost acid], the EC50 is ~3.3 nM in data set [1] and 5.8 nM in data set [2].

Turning to `O=C(O)CCC/C=C\C[C@@H]1[C@@H](/C=C/[C@@H](O)COc2cccc(C(F)(F)F)c2)[C@H](O)C[C@@H]1O` [Travoprost acid], the EC50 in data set [1] was 1.4 nM; in data set [2] it was 3.2 nM.
